Assay results reported in PubChem BioAssay (NCI).
“And” between values parts separate entries of the source, which are not always exact repeats. Identical values can stand only once.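 These data come from cells grown in 96-well plates and exposed to compound for 48 hours at five concentrations. Abbreviation: GI50, concentration required for 50% inhibition of growth. At the TGI there is no net growth.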

Assays:
Assay in all cases: NCI tumour cell line growth inhibition, 48 h
HL-60(TB) leukemia = system: HL-60(TB) leukemia
OVCAR-4 ovarian = system: OVCAR-4 ovarian
SF-295 CNS = system: SF-295 CNS
ACHN renal = system: ACHN renal
NCI/ADR-RES ovarian = system: NCI/ADR-RES ovarian
SR leukemia = system: SR leukemia
HCC-2998 colon = system: HCC-2998 colon
T-47D breast = system: T-47D breast
SK-OV-3 ovarian = system: SK-OV-3 ovarian
SK-MEL-2 melanoma = system: SK-MEL-2 melanoma

SMILES | GI50 (HL-60(TB) leukemia) | TGI (HL-60(TB) leukemia) [µM] | GI50 (OVCAR-4 ovarian) | TGI (OVCAR-4 ovarian) [µM] | GI50 (SF-295 CNS) | TGI (SF-295 CNS) [µM] | GI50 (ACHN renal) | TGI (ACHN renal) [µM] | GI50 (NCI/ADR-RES ovarian) | TGI (NCI/ADR-RES ovarian) [µM] | GI50 (SR leukemia) [µM] | TGI (SR leukemia) [µM] | GI50 (HCC-2998 colon) [µM] | GI50 (T-47D breast) | TGI (T-47D breast) [µM] | GI50 (SK-OV-3 ovarian) [µM] | TGI (SK-OV-3 ovarian) [µM] | GI50 (SK-MEL-2 melanoma) | TGI (SK-MEL-2 melanoma) [µM] | TGI (HCC-2998 colon) [µM]
Cc1ccc(-c2nc(N3CCNCC3)c3oc(-c4ccc(C)cc4)nc3n2)cc1 | 1.17 µM | 3.26 | 2.22 µM | 10.6 | 12.1 µM | 52.6 | 2.23 µM | 4.78 | 2 µM | 3.81 | 0.371 | 1.85 | 3.61 | 25.7 µM | > 61.1 | > 43.2 | > 59.2 | > 41.6 µM | > 60.9 | –
O=C(O)C(Cl)Cl | 7270 µM and > 7660 µM | > 10000 | 3300 µM and 8520 µM | > 10000 | 4230 µM and > 10000 µM | > 10000 | 5700 µM and > 10000 µM | > 10000 | 7660 µM and > 10000 µM | > 10000 | > 10000 | > 10000 | > 10000 | 4100 µM and > 10000 µM | > 10000 | > 10000 | > 10000 | 8200 µM and > 10000 µM | > 10000 | > 10000
COc1ccccc1NC(=O)c1cc2cc(Br)ccc2cc1O | 2.14 µM | > 22.1 | 3.11 µM | 21.4 | 2.31 µM | 7.59 | 2.52 µM | 7.21 | 2.75 µM | 12.1 | 0.809 | 9.14 | 3.21 | 2 µM | 10.7 | 1.75 | 6.08 | 2.03 µM | 5.51 | 11.8
O=C1c2c(F)c(F)c(F)c(F)c2C(=O)N1c1ccc(F)cc1F | 0.403 µM | 0.891 | 16.9 µM | 53.3 | 13.7 µM | 46.4 | 10.1 µM | 23 | 7.55 µM | 30.5 | 0.144 | 1.2 | 11.2 | 19.7 µM | 46.8 | 20.7 | 50.2 | 34.4 µM | > 100 | 23.2
OC(c1cc(C(F)(F)F)nc2c(C(F)(F)F)cccc12)C1CCCCN1 (stereo unspecified) | 2.46 µM | 4.6 | 2.81 µM | 7.07 | 2.04 µM | 5.09 | 2.69 µM | 7.05 | 2.31 µM | 5.95 | 3.59 | 8.27 | 1.46 | 1.76 µM | 4.11 | 1.95 | 4.32 | 2.31 µM | 4.16 | 3.22
CC(=C(c1ccc(OCCN2CCCCC2)cc1)c1ccc(OCCN2CCCCC2)cc1)c1ccc(Cl)cc1 | 0.452 µM | 0.957 | 0.46 µM | 0.893 | 0.449 µM | 0.868 | 0.434 µM | 0.779 | 0.446 µM | 0.858 | 0.195 | 0.707 | 0.396 | 0.43 µM | 1.04 | 0.428 | 0.806 | 0.459 µM | 0.909 | 0.755
NCCNCCNCCN | > 100 µM | > 100 | > 100 µM | > 100 | > 100 µM | > 100 | > 100 µM | > 100 | > 100 µM | > 100 | > 100 | > 100 | > 100 | > 100 µM | > 100 | > 100 | > 100 | > 100 µM | > 100 | > 100
CC(=O)N[C@@H](Cc1ccc(OP(=O)(O)O)cc1)C(=O)N[C@H]1CCC(=O)N2CCC[C@@H](C(=O)Nc3cccc4ccccc34)N2C1=O | > 25 µM | > 25 | > 25 µM | > 25 | > 25 µM | > 25 | > 25 µM | > 25 | > 25 µM | > 25 | > 25 | > 25 | > 25 | > 25 µM | > 25 | > 25 | > 25 | > 25 µM | > 25 | > 25
O=C(Nc1nn2c(-c3cc(C(F)(F)F)cc(C(F)(F)F)c3)nnc2s1)C1CCCC1 | 0.407 µM | 1.75 | 0.748 µM | > 37.9 | 0.286 µM | 2.01 | 1.04 µM | > 31.6 | 0.641 µM | > 28.5 | 0.942 | 6.21 | 0.685 | 0.375 µM | > 24.6 | 1.76 | 45.8 | 0.529 µM | 2.4 | > 100
CC(=O)OC1(C)N=NC2(CCCCC2)O1 (stereo unspecified) | – | > 100 | – | > 100 | – | > 100 | – | > 100 | – | > 100 | – | > 100 | – | – | > 100 | – | > 100 | – | > 100 | –
C=C(C)C(=O)O[C@@H]1C[C@@]2(C)O[C@@H]2C[C@H](O)/C(C)=C/[C@H]2OC(=O)C(=C)[C@@H]21 | – | – | – | 78.9 | – | > 100 | – | > 100 | – | > 100 | – | > 100 | – | – | > 100 | – | > 100 | – | > 100 | > 100
CC(=O)OCc1ccc2c(c1)C(O)NC(=O)O2 (stereo unspecified) | – | > 100 | – | > 100 | – | > 100 | – | > 100 | – | > 100 | – | > 100 | – | – | > 100 | – | > 100 | – | > 100 | –
COc1cc2c(cc1OC)C(Cl)C(c1ccc(F)cc1)=C2Cl (stereo unspecified) | – | 24.2 | – | – | – | 29 | – | 26.1 | – | 34.5 | – | 14.3 | – | – | 21.7 | – | 41.9 | – | 26.5 | 28.5
COC(=O)c1cc2oc(/C=C3/SC(=S)N(NC(C)=O)C3=O)cc2n1C | 38.3 µM | > 100 | 37.7 µM | > 100 | 18.2 µM | 65.5 | 15.8 µM | 43.5 | 15.3 µM | 51.4 | 3.32 | > 100 | 12 | 29.6 µM | 90.7 | – | – | 23.9 µM | > 100 | 29.5
Cc1nnc2ccnn2c1C | > 100 µM | > 100 | > 100 µM | > 100 | > 100 µM | > 100 | > 100 µM | > 100 | 20.5 µM | 43.4 | – | – | 18.1 | > 100 µM | > 100 | > 100 | > 100 | > 100 µM | > 100 | 33.1
